Patent US7750024B2, “Remedy for glioblastoma” (Astellas Pharma Inc., priority 2002, dated 2010)
Several values for one entry are separate records, joined by “and”; a condition that tells them apart may be missing. Identical values can stand only once.

How the values were obtained:
[1] = system: CGNH-89 human glioblastoma; test: Growth inhibition on glioblastoma in vivo, CGNH-89 transplanted subcutaneously in nude mice; details: 100 mg/kg intraperitoneally for 14 days vs PBS; days 11 and 13 after onset and days 2, 4, 6, 8 after completion of administration
Method: Nude mice (5-6 weeks old) were used at this experiment. 10^7 cells of CGNH-89 used in Example 1 were transplanted subcutaneously in the nude mice. On the next day of transplantation, the mice were divided randomly in two groups; a group (n=12) to be administered with 100 mg/kg compound A and a group (n=12) to be administered with PBS (phosphate buffered saline). The drug was administered repeatedly intraperitoneally for 14 days starting on the next day of transplantation. Up to day 8 after the completion of the administration, the mice were observed. The tumor size was measured every two days with a vernier micrometer, to calculate the volume according to the formula (length×width^2)×½.
The results are shown in mean±standard deviation and statistically analyzed by the Student's t-test. The significance level was set at p<0.05.

[2] = system: Human glioblastoma cell (CGNH-89 cell line); test: Proliferation of human glioblastoma cells by Ki67 antibody staining in vitro; type: cell-based
Method: (§1) Human glioblastoma cell (CGNH-89 cell line) was used at this experiment. These cells were randomly divided in the following three groups: a group of a glutamate-free medium (no glutamate group; control group); a group of the glutamate-free medium added 100 μM glutamate (100 μM glutamate group); a group of the glutamate-free medium added 100 μM glutamate and 20 μM NBQX (100 μM glutamate+20 μM NBQX group). The cells were incubated for 48 hours. The CGNH-89 cell was cultured in DMEM (Dulbecco's modified Eagle's medium) supplemented with 10% dialyzed fetal calf serum.
(§2) CGNH-89 cell line was established through resection from the tumor at the right front lobe of a person according to the Explant method by Nicolas et al. (Science 196, 60-63, 1977). […] Additionally, the mRNAs of GluR1 through GluR4 were analyzed with antibodies against the AMPA receptor subunits GluR1, GluR2, GluR3 and GluR4 and RT-PCR. Consequently, the cell line expresses GluR1 and GluR4 but not expresses GluR2 and GluR3. As described above, the cell line has the same profile as that of the cell of primary glioblastoma de novo.
(§3) The anti-tumor action was evaluated by calculating the apoptosis score by TUNEL method (terminal deoxynucleotide transferase (TdT)-mediated dUTP nick end labeling) 48 hours after culturing. Additionally, proliferation of the human glioblastoma cell was evaluated, using the antibody Ki67.
(§4) The results are shown as mean±standard deviation and statistically analyzed by the Student's t-test. Significance level was set at p<0.05.

[3] = system: Human glioblastoma cell (CGNH-89 cell line); test: Apoptosis by TUNEL method in human glioblastoma cells in vitro; type: cell-based
Method: as §1, §2, §3, §4

C6 and RG2 glioma = C6 and RG2 glioma transplanted rats; cited from earlier work
[4] = 20 μM NBQX + 100 μM glutamate, 48 hours incubation, mean±SD
[5] = 20 μM NBQX with 100 μM glutamate, 48 hours
[6] = 100 μM glutamate alone added to glutamate-free medium, 48 hours

## O.O=C(O)Cn1c(=O)c(=O)[nH]c2cc([N+](=O)[O-])c(-n3ccnc3)cc21 [Compound A, [7-(1H-imidazol-1-yl)-6-nitro-2,3-dioxo-3,4-dihydroquinoxalin-1 (2H)-yl]acetic acid•monohydrate]
[1]
  tumor growth inhibition (tumor volume): significant tumor growth inhibition

## NS(=O)(=O)c1cccc2c1c([N+](=O)[O-])cc1nc(O)c(O)nc12 [NBQX, 2,3-dihydroxy-6-nitro-7-sulfamoyl-benzo(F)-quinoxaline]
[2]; [4]
  staining index with Ki-67 (proliferation inhibiting activity): 2.0 ± 1.0%
[2]; [5]
  effect on glutamate-induced proliferative activity: suppressed the glutamate-induced proliferative activity
[3]; [4]
  TUNEL-SCORE (ratio of apoptosis): 13.0 ± 2.0%
[3]; [5]
  effect on glutamate-induced suppression of apoptosis: induced the apoptosis

## N[C@@H](CCC(=O)O)C(=O)O [glutamate]
[2]; [6]
  staining index with Ki-67 (proliferation inhibiting activity): 18.5% and 18.5 ± 3.0%
[3]; [6]
  TUNEL-SCORE (ratio of apoptosis): 3% and 3.0 ± 2.0%

## C[C@]12N[C@H](Cc3ccccc31)c1ccccc12 [MK-801]
C6 and RG2 glioma
  proliferation inhibition: exert a proliferation inhibition

## CC12CC3CC(C)(C1)CC(N)(C3)C2 [memantin]
C6 and RG2 glioma
  proliferation inhibition: exert a proliferation inhibition
